# According to US7091202B2, “4-arylspirocycloalkyl-2-aminopyrimidine carboxamide KCNQ potassium channel modulators” (Bristol-Myers Squibb Company, priority 2004, dated 2006):
# Biological target: T1, hQ23 (HEK-293 cell line stably transfected with one of the members of the KCNQ family) (Homo sapiens, UniProt O43525+O43526)
# T1 construct: expressed in transfected cells; host or cells: HEK-293, stably transfected
# Assay: Thallium flux assay for KCNQ channel blockers (FLIPR, BTC dye)
# Assay type: cell-based
# Conditions: Table 2; thallium flux, HEK-293
# How it was run: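 HEK-293 cells stably expressing a KCNQ member, loaded with BTC-AM (2 μM) in chloride-free buffer, pH 7.3; compounds added at 1% DMSO, then Tl2SO4 stimulus on FLIPR (488/540 nm, 60 s). Minimal active concentration set at ≥4 SD above negative control; IC50 from 10-point 1:3 series, single-site logistic fit versus the positive-control blocker.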
# T1 sequence (O43526 whole entry): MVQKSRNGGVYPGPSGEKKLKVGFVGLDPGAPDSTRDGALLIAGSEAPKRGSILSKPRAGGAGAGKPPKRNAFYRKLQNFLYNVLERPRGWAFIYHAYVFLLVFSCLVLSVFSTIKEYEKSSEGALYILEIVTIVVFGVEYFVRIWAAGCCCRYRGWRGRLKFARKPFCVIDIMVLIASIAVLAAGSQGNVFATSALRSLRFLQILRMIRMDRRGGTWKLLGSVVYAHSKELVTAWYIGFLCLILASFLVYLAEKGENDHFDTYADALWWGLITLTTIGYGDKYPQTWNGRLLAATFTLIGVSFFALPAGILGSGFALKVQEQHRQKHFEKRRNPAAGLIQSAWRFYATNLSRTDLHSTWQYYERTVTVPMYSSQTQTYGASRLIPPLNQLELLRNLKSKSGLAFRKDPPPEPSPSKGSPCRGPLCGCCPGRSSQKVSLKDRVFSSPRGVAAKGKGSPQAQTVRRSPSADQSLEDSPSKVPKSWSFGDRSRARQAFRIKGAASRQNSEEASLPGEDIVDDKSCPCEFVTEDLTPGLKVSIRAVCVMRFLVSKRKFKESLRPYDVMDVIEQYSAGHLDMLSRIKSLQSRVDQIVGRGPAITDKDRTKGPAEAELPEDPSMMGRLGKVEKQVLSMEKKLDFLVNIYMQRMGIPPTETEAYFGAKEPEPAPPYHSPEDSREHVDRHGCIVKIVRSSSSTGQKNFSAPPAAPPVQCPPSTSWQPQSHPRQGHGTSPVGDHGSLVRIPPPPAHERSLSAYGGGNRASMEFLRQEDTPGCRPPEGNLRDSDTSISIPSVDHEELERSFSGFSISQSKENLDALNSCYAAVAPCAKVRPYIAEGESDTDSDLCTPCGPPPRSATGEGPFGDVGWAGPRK
# T1 sequence (O43525 whole entry): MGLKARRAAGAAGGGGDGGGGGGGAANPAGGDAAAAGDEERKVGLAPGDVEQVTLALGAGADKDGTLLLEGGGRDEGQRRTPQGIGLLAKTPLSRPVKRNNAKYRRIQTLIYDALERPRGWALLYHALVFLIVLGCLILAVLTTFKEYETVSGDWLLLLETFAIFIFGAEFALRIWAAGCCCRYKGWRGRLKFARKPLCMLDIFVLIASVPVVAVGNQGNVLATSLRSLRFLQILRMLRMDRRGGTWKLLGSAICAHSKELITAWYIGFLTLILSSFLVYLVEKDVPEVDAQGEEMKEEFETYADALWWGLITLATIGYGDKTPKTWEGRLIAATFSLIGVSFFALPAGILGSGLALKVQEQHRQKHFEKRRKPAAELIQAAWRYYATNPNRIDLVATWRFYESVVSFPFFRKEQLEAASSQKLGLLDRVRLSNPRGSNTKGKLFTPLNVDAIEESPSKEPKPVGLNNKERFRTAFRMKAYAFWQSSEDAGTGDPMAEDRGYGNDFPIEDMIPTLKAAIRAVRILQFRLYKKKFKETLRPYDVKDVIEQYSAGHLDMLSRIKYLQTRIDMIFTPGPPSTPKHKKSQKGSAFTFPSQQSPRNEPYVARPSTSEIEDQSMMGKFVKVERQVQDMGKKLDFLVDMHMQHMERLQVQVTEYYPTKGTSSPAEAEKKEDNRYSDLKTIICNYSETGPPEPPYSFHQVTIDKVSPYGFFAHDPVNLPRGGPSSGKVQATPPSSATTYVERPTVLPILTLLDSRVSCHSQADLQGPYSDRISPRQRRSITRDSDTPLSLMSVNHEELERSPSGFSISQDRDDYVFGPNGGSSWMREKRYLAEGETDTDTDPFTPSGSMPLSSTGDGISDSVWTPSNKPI
row,SMILES,EC50 [nM]
1,"CC1CCN(c2ncc(C(=O)NCc3cc(F)cc(C(F)(F)F)c3)c(C3(c4ccccc4)CC3)n2)CC1 [Example 48, 5-pyrimidinecarboxamide, N-[[3-fluoro-5-(trifluoromethyl)phenyl]methyl]-2-(4-methyl-1-piperidinyl)-4-(1-phenylcyclopropyl)-]",297

# Same assay, conditions: Table 3; thallium flux, HEK-293
row,SMILES,EC50 [nM]
1,"CCC(C)Nc1ncc(C(=O)N(CC)CC)c(C2(c3ccc(Cl)cc3)CCC2)n1 (stereo not drawn) [Example 52, 5-pyrimidinecarboxamide, 4-[1-(4-chlorophenyl)cyclobutyl]-N,N-diethyl-2-[(1-methylpropyl)amino]-]",211
2,"CC1CCCN(c2ncc(C(=O)NCc3ccc(Cl)cc3Cl)c(C3(c4ccc(Cl)cc4)CCC3)n2)C1 (stereo not drawn) [Example 63, 5-pyrimidinecarboxamide, 4-[1-(4-chlorophenyl)cyclobutyl]-N-[(2,4-dichlorophenyl)methyl]-2-(3-methyl-1-piperidinyl)-]",14

# Same assay, conditions: hQ23 cells, thallium flux
row,SMILES,EC50 [nM]
1,"CC1CCN(c2ncc(C(=O)N3CCCC(C)C3)c(C3(c4ccc(F)cc4)CCCC3)n2)CC1 (stereo not drawn) [Example 218, piperidine, 1-[[4-[1-(4-fluorophenyl)cyclopentyl]-2-(4-methyl-1-piperidinyl)-5-pyrimidinyl]carbonyl]-3-methyl-]",866
2,"CN(Cc1ccccc1)C(=O)c1cnc(N2CCCC2)nc1C1(c2ccccc2)CCCC1 [Example 69, 5-pyrimidinecarboxamide, N-methyl-4-(1-phenylcyclopentyl)-N-(phenylmethyl)-2-(1-pyrrolidinyl)-]",778
3,"O=C(NCc1ccc(Cl)cc1Cl)c1cnc(NC2CC2)nc1C1(c2ccc(Cl)cc2)CCCC1 [Example 176, 5-pyrimidinecarboxamide, 4-[1-(4-chlorophenyl)cyclopentyl]-2-(cyclopropylamino)-N-[(2,4-dichlorophenyl)methyl]-]",196
4,"CC1CCCN(c2ncc(C(=O)NCc3ccc(Cl)cc3Cl)c(C3(c4ccc(Cl)cc4)CCCC3)n2)C1 (stereo not drawn) [Example 180, 5-pyrimidinecarboxamide, 4-[1-(4-chlorophenyl)cyclopentyl]-N-[(2,4-dichlorophenyl)methyl]-2-(3-methyl-1-piperidinyl)-]",10
5,"CN(CCc1ccccc1)C(=O)c1cnc(N2CCCC2)nc1C1(c2ccccc2)CCCC1 [Example 79, 5-pyrimidinecarboxamide, N-methyl-4-(1-phenylcyclopentyl)-N-(2-phenylethyl)-2-(1-pyrrolidinyl)-]",444
6,"CC1CCCN(c2ncc(C(=O)N(C)CCc3ccccc3)c(C3(c4ccc(F)cc4)CCCC3)n2)C1 (stereo not drawn) [Example 221, 5-pyrimidinecarboxamide, 4-[1-(4-fluorophenyl)cyclopentyl]-N-methyl-2-(3-methyl-1-piperidinyl)-N-(2-phenylethyl)-]",356
7,"CC1CCC(Nc2ncc(C(=O)N3CCc4ccccc4C3)c(C3(c4ccc(F)cc4)CCCC3)n2)CC1 (stereo not drawn) [Example 210, isoquinoline, 2-[[4-[1-(4-fluorophenyl)cyclopentyl]-2-[(4-methylcyclohexyl)amino]-5-pyrimidinyl]carbonyl]-1,2,3,4-tetrahydro-]",375
8,"CCN(Cc1ccccc1)C(=O)c1cnc(N2CCCC(C)C2)nc1C1(c2ccccc2)CCCC1 (stereo not drawn) [Example 85, 5-pyrimidinecarboxamide, N-ethyl-2-(3-methyl-1-piperidinyl)-4-(1-phenylcyclopentyl)-N-(phenylmethyl)-]",161
9,"CCC(C)Nc1ncc(C(=O)N(CC)Cc2ccccc2)c(C2(c3ccccc3)CCCC2)n1 (stereo not drawn) [Example 87, 5-pyrimidinecarboxamide, N-ethyl-2-[(1-methylpropyl)amino]-4-(1-phenylcyclopentyl)-N-(phenylmethyl)-]",851
10,"CCN(Cc1ccccc1)C(=O)c1cnc(NC2CCC(C)CC2)nc1C1(c2ccc(F)cc2)CCCC1 (stereo not drawn) [Example 228, 5-pyrimidinecarboxamide, N-ethyl-4-[1-(4-fluorophenyl)cyclopentyl]-2-[(4-methylcyclohexyl)amino]-N-(phenylmethyl)-]",637

# Further lines, results first:
row,EC50 [nM],SMILES
1,437,"CC1CCN(c2ncc(C(=O)N(C)CCc3ccccc3)c(C3(c4ccccc4)CCCC3)n2)CC1 [Example 81, 5-pyrimidinecarboxamide, N-methyl-2-(4-methyl-1-piperidinyl)-4-(1-phenylcyclopentyl)-N-(2-phenylethyl)-]"
2,664,"CC1CCC(Nc2ncc(C(=O)N(C)CCc3ccccc3)c(C3(c4ccc(Cl)cc4)CCCC3)n2)CC1 (stereo not drawn) [Example 146, 5-pyrimidinecarboxamide, 4-[1-(4-chlorophenyl)cyclopentyl]-N-methyl-2-[(4-methylcyclohexyl)amino]-N-(2-phenylethyl)-]"
3,497,"CN1CCN(c2ncc(C(=O)NCc3cccc4ccccc34)c(C3(c4ccc(Cl)cc4)CCCC3)n2)CC1 [Example 168, 5-pyrimidinecarboxamide, 4-[1-(4-chlorophenyl)cyclopentyl]-2-(4-methyl-1-piperazinyl)-N-(1-naphthalenylmethyl)-]"
4,85,"CC1CCC(Nc2ncc(C(=O)NCc3ccc(F)cc3F)c(C3(c4ccccc4)CCCC3)n2)CC1 (stereo not drawn) [Example 116, 5-pyrimidinecarboxamide, N-[(2,4-difluorophenyl)methyl]-2-[(4-methylcyclohexyl)amino]-4-(1-phenylcyclopentyl)-]"
5,10,"CC1CCC(Nc2ncc(C(=O)NCc3cc(F)cc(C(F)(F)F)c3)c(C3(c4ccccc4)CCCC3)n2)CC1 (stereo not drawn) [Example 123, 5-pyrimidinecarboxamide, N-[[3-fluoro-5-(trifluoromethyl)phenyl]methyl]-2-[(4-methylcyclohexyl)amino]-4-(1-phenylcyclopentyl)-]"

# Same assay, conditions: hQ23 cells, thallium flux assay
row,SMILES,EC50 [nM]
1,"CC1CCCN(c2ncc(C(=O)NCc3cc(F)cc(C(F)(F)F)c3)c(C3(c4ccc(F)cc4)CCCC3)n2)C1 (stereo not drawn) [Example 277, 5-pyrimidinecarboxamide, 4-[1-(4-fluorophenyl)cyclopentyl]-N-[[3-fluoro-5-(trifluoromethyl)phenyl]methyl]-2-(3-methyl-1-piperidinyl)-]",22
2,"CN1CCC(N(C)c2ncc(C(=O)NCc3ccc(Cl)cc3Cl)c(C3(c4ccc(F)cc4)CCCC3)n2)CC1 [Example 264, 5-pyrimidinecarboxamide, N-[(2,4-dichlorophenyl)methyl]-4-[1-(4-fluorophenyl)cyclopentyl]-2-[methyl(1-methyl-4-piperidinyl)amino]-]",282
3,"CCN(Cc1ccccc1)C(=O)c1cnc(NC2CCCC2)nc1C1(c2ccc(F)cc2)CCCC1 [Example 232, 5-pyrimidinecarboxamide, 2-(cyclopentylamino)-N-ethyl-4-[1-(4-fluorophenyl)cyclopentyl]-N-(phenylmethyl)-]",460
4,"O=C(NCc1ccc(F)cc1F)c1cnc(NC2CCCC2)nc1C1(c2ccc(F)cc2)CCCC1 [Example 273, 5-pyrimidinecarboxamide, 2-(cyclopentylamino)-N-[(2,4-difluorophenyl)methyl]-4-[1-(4-fluorophenyl)cyclopentyl]-]",115
5,"CC1CCC(Nc2ncc(C(=O)NCc3ccc4c(c3)OCO4)c(C3(c4ccc(F)cc4)CCCC3)n2)CC1 (stereo not drawn) [Example 234, 5-pyrimidinecarboxamide, N-(1,3-benzodioxol-5-ylmethyl)-4-[1-(4-fluorophenyl)cyclopentyl]-2-[(4-methylcyclohexyl)amino]-]",235
6,"CN1CCN(c2ncc(C(=O)NCc3ccc(F)cc3F)c(C3(c4ccc(F)cc4)CCCC3)n2)CC1 [Example 268, 5-pyrimidinecarboxamide, N-[(2,4-difluorophenyl)methyl]-4-[1-(4-fluorophenyl)cyclopentyl]-2-(4-methyl-1-piperazinyl)-]",634
